Read-outs that look alike come from different tables or passages of the source.

Assay [1] concerns A2780-CP70 cells. The settings on record: A2780-CP70, cisplatin-resistant; cited from earlier work.
Assay [2] concerns ERCC1, XPD, XRCC1. As to conditions: cited from earlier work.
Assay [3] deals with c-jun. As to conditions: cited from earlier work.
The subject of assay [4] is c-jun. Description: c-jun and c-fos protein expression and c-jun phosphorylation in A2780-CP70 cells (Western blot). In kind it is cell-based, human. As to conditions: IC50 dose of cisplatin. Here is the method: c-jun protein expression was assessed in cisplatin-treated A2780-CP70 cells using Western blot analysis.
Protein expression of c-fos and phosphorylation of c-jun in cyclopamine-treated A2780-CP70 cells was assessed using Western blot analysis. Protein levels for c-jun, c-fos, phosphorylated c-jun (Ser 63), phosphorylated c-jun (Ser 73), and phosphorylated c-jun (Thr 91, Thr 93) were tested in cytosolic, nuclear, and whole cell fractions at 0 hr, 6 hr, 24 hr, 48 hr, and 72 hr. Internal controls for cytosolic and nuclear fractions included α-tubulin and histone deacetylase 3.
Phosphorylation of c-jun in A2780-CP70 cells transfected with anti-GLI1 shRNA construct was assessed using Western blot analysis. Protein levels for c-jun, phosphorylated c-jun (Ser 63), phosphorylated c-jun (Ser 73), and phosphorylated c-jun (Thr 91, Thr 93) were examined at 0 hr, 6 hr, 24 hr, 48 hr, and 72 hr.
(In general: A western blot detects proteins with antibodies after separation by electrophoresis.)

Assay [5] has as its system A2780-CP70 cells. Put plainly: Cisplatin sensitivity of A2780-CP70 cells (percent cell growth). As to conditions: read-out: IC50 of cisplatin.
Method: Controls included α-tubulin and histone deactylase.
Transfected cells were treated with 0 μM, 2 μM, 5 μM, 10 μM, 30 μM, and 50 μM cisplatin at 24 hr post-transfection.
Assay [6] concerns ERCC1, XPD, XRCC1. Description: ERCC1, XPD and XRCC1 mRNA levels in A2780-CP70 cells (semi-quantitative PCR). The settings on record: cells treated with cisplatin. In kind it is cell-based, human.

The IC50 is the midpoint of a concentration-inhibition curve. Consider `N.N.[Cl][Pt][Cl]` [cisplatin], for which the IC50 in assay [1] is approximately 40 µM; in assay [5] (cells transfected with 0.07 μg/well anti-Gli1 shRNA construct, cisplatin at 24 hr post-transfection), 8 µM; in assay [5] (control cells), 28 µM. Also, the “expected increase in ERCC1 mRNA levels” value in assay [2] (cells treated with cisplatin only) is reported as 6 fold. Moreover, the “ERCC1 mRNA half-life” value in assay [2] (cisplatin-treated cells (14 hr in untreated cells)) is 24 h. The “ERCC1, XPD, or XRCC1 regulation” value in assay [2] (previous experiments, agents at IC50 doses) is on record as “up-regulated”. The “phosphorylation of c-jun protein, peak over baseline” value in assay [3] (3-5 hr after cisplatin treatment) is given as 15 fold. In assay [3] (after cisplatin exposure), the “time of peak c-jun (Ser 63/73) protein levels” value was 3 to 5 h. For the same compound, the c-jun protein expression entry in assay [4] is reported as “increased substantial between 0-6 hr”. Also, the “expression levels of ERCC1, XPD, and XRCC1 proteins, increase” value in assay [6] worked out at 5 fold.

The values are drawn from US9540647B2, “Methods and compositions for the treatment of cancer” (University of South Alabama, priority 2010, dated 2017).
